Measured values as given in publication PMC5218480 (PLoS ONE, 2017).

Tested on: MV-4-11 cells
Assay: Gene expression microarray analysis (Affymetrix PrimeView) and GSEA
Type: cell-based, human
Parameters: RFU PODN (11730768_x_at) / Fold change /veh PODN (11730768_x_at) / RFU LINC00158 (11744669_a_at) / Fold change /veh LINC00158 (11744669_a_at) / RFU DUSP10 (11751237_a_at) / Fold change /veh DUSP10 (11751237_a_at) / RFU ID3 (11757404_x_at) / Fold change /veh ID3 (11757404_x_at) / RFU PLEKHG5 (11737974_s_at) / Fold change /veh PLEKHG5 (11737974_s_at) / RFU LRRC4B (11730491_at) / Fold change /veh LRRC4B (11730491_at) / RFU GIMAP4 (11747438_a_at) / Fold change /veh GIMAP4 (11747438_a_at) / RFU KRT8 (11758183_x_at) / Fold change /veh KRT8 (11758183_x_at) / RFU CNN1 (11734310_a_at) / Fold change /veh CNN1 (11734310_a_at) / RFU VPS37D (11726825_at) / Fold change /veh VPS37D (11726825_at) / RFU C10orf10 (11716522_x_at) / Fold change /veh C10orf10 (11716522_x_at) / RFU KIR2DL2 /// KIR2DL4 /// KIR2DL5A /// KIR2DL5B /// KIR2DS1 /// KIR2DS2 /// KIR2DS3 /// KIR2DS4 /// KIR3DL3 /// KIR3DL3 /// KIR3DS1 (11738374_at) / Fold change /veh KIR2DL2 /// KIR2DL4 /// KIR2DL5A /// KIR2DL5B /// KIR2DS1 /// KIR2DS2 /// KIR2DS3 /// KIR2DS4 /// KIR3DL3 /// KIR3DL3 /// KIR3DS1 (11738374_at) / RFU C1QL1 (11718748_at) / Fold change /veh C1QL1 (11718748_at) / RFU TMPRSS4 (11747572_a_at) / Fold change /veh TMPRSS4 (11747572_a_at) / RFU HAMP (11756126_x_at) / Fold change /veh HAMP (11756126_x_at) / RFU RNFT2 (11725882_a_at) / Fold change /veh RNFT2 (11725882_a_at) / RFU NR4A2 (11747474_a_at) / Fold change /veh NR4A2 (11747474_a_at) / RFU ABCC12 (11746883_a_at) / Fold change /veh ABCC12 (11746883_a_at) / RFU TMEM136 (11760407_x_at) / Fold change /veh TMEM136 (11760407_x_at) / RFU CLDN22 /// WWC2 (11732394_at) / Fold change /veh CLDN22 /// WWC2 (11732394_at) / RFU HLA-DPB1 (11760878_x_at) / Fold change /veh HLA-DPB1 (11760878_x_at) / RFU SPINT1 (11716480_a_at) / Fold change /veh SPINT1 (11716480_a_at) / RFU GAP43 (11754022_s_at) / Fold change /veh GAP43 (11754022_s_at) / RFU A4GNT (11735810_at) / Fold change /veh A4GNT (11735810_at) / RFU PRB3 (11715151_x_at) / Fold change /veh PRB3 (11715151_x_at) / RFU TUBB4B (11761932_at) / Fold change /veh TUBB4B (11761932_at) / RFU CAPN14 (11732068_a_at) / Fold change /veh CAPN14 (11732068_a_at) / RFU TMCC2 (11721928_a_at) / Fold change /veh TMCC2 (11721928_a_at) / RFU IRGQ (11745062_a_at) / Fold change /veh IRGQ (11745062_a_at) / RFU FAM174B (11720279_a_at) / Fold change /veh FAM174B (11720279_a_at) / RFU TMPRSS4 (11748680_a_at) / Fold change /veh TMPRSS4 (11748680_a_at) / RFU FAM212B (11763350_a_at) / Fold change /veh FAM212B (11763350_a_at) / RFU PLEKHG5 (11743358_a_at) / Fold change /veh PLEKHG5 (11743358_a_at) / RFU ZSCAN30 (11745921_a_at) / Fold change /veh ZSCAN30 (11745921_a_at) / RFU CMKLR1 (11741424_a_at) / Fold change /veh CMKLR1 (11741424_a_at) / RFU LOC101060620 /// MAPK8IP1 (11723275_at) / Fold change /veh LOC101060620 /// MAPK8IP1 (11723275_at) / RFU SPTSSB (11747773_x_at) / Fold change /veh SPTSSB (11747773_x_at) / RFU PRSS12 (11739890_at) / Fold change /veh PRSS12 (11739890_at) / RFU BIN1 (11741810_x_at) / Fold change /veh BIN1 (11741810_x_at) / RFU WNT11 (11732464_a_at) / Fold change /veh WNT11 (11732464_a_at) / RFU C10orf10 (11716521_a_at) / Fold change /veh C10orf10 (11716521_a_at) / RFU C5orf56 (11738089_at) / Fold change /veh C5orf56 (11738089_at) / RFU CYB561 (11721691_x_at) / Fold change /veh CYB561 (11721691_x_at) / RFU ANKRD19P (11752326_a_at) / Fold change /veh ANKRD19P (11752326_a_at) / RFU OR2T12 /// OR2T33 /// OR2T8 (11738714_s_at) / Fold change /veh OR2T12 /// OR2T33 /// OR2T8 (11738714_s_at) / RFU VCAN (11748164_a_at) / Fold change /veh VCAN (11748164_a_at) / RFU JSRP1 (11732532_at) / Fold change /veh JSRP1 (11732532_at) / RFU KRTAP10-11 (11738290_x_at) / Fold change /veh KRTAP10-11 (11738290_x_at) / RFU MYO3A (11730013_a_at) / Fold change /veh MYO3A (11730013_a_at) / RFU EBF3 (11725865_a_at) / Fold change /veh EBF3 (11725865_a_at) / RFU CAMK2N1 (11719241_x_at) / Fold change /veh CAMK2N1 (11719241_x_at) / RFU C5orf56 (11738088_a_at) / Fold change /veh C5orf56 (11738088_a_at) / RFU OLFML3 (11715873_a_at) / Fold change /veh OLFML3 (11715873_a_at) / RFU LOC100653217 /// NTM (11731650_a_at) / Fold change /veh LOC100653217 /// NTM (11731650_a_at) / RFU MAPK11 (11762145_a_at) / Fold change /veh MAPK11 (11762145_a_at) / RFU FIZ1 (11724087_x_at) / Fold change /veh FIZ1 (11724087_x_at) / RFU OASL (11726364_x_at) / Fold change /veh OASL (11726364_x_at) / RFU SOX15 (11748057_x_at) / Fold change /veh SOX15 (11748057_x_at) / RFU CD79A (11719716_a_at) / Fold change /veh CD79A (11719716_a_at) / RFU HIST1H1D (11736915_at) / Fold change /veh HIST1H1D (11736915_at) / RFU CASKIN2 (11723855_a_at) / Fold change /veh CASKIN2 (11723855_a_at) / RFU LOC730098 (11760151_x_at) / Fold change /veh LOC730098 (11760151_x_at) / RFU OR4N2 (11742367_at) / Fold change /veh OR4N2 (11742367_at) / RFU PRRT2 (11749266_a_at) / Fold change /veh PRRT2 (11749266_a_at) / RFU SNX32 (11753110_a_at) / Fold change /veh SNX32 (11753110_a_at) / RFU CDHR5 (11726645_a_at) / Fold change /veh CDHR5 (11726645_a_at) / RFU RCAN1 (11760418_a_at) / Fold change /veh RCAN1 (11760418_a_at) / RFU FAM167A (11723789_a_at) / Fold change /veh FAM167A (11723789_a_at) / RFU FAM26E (11764081_at) / Fold change /veh FAM26E (11764081_at) / RFU ISYNA1 (11749810_s_at) / Fold change /veh ISYNA1 (11749810_s_at) / RFU ACY1 (11761880_at) / Fold change /veh ACY1 (11761880_at) / RFU 11764098_at / Fold change /veh 11764098_at / RFU SAMD14 (11745864_x_at) / Fold change /veh SAMD14 (11745864_x_at) / RFU NPB (11741838_a_at) / Fold change /veh NPB (11741838_a_at) / RFU TMPRSS6 (11731388_a_at) / Fold change /veh TMPRSS6 (11731388_a_at) / RFU KRTAP10-2 (11738614_at) / Fold change /veh KRTAP10-2 (11738614_at) / RFU ARHGAP8 /// PRR5-ARHGAP8 (11727945_x_at) / Fold change /veh ARHGAP8 /// PRR5-ARHGAP8 (11727945_x_at) / RFU KRTAP5-7 /// NADSYN1 (11734609_at) / Fold change /veh KRTAP5-7 /// NADSYN1 (11734609_at) / RFU RASL12 (11751679_a_at) / Fold change /veh RASL12 (11751679_a_at) / RFU CDKN2B (11736163_a_at) / Fold change /veh CDKN2B (11736163_a_at) / RFU PRF1 (11729649_at) / Fold change /veh PRF1 (11729649_at) / RFU, ZNF638 /// ZNF638-IT1 / Fold change vs veh, ZNF638 /// ZNF638-IT1 / RFU, PANK3 / Fold change vs veh, PANK3 / RFU, SH3YL1 / Fold change vs veh, SH3YL1 / RFU, ZEB2 / Fold change vs veh, ZEB2 / RFU, NRIP1 / Fold change vs veh, NRIP1 / RFU, PTTG1IP / Fold change vs veh, PTTG1IP / RFU, CAPN2 / Fold change vs veh, CAPN2 / RFU, MED14 / Fold change vs veh, MED14 / RFU, SNORA58 / Fold change vs veh, SNORA58 / RFU, C1orf63 / Fold change vs veh, C1orf63 / RFU, LRRFIP1 / Fold change vs veh, LRRFIP1 / RFU, NDUFAF7 / Fold change vs veh, NDUFAF7 / RFU, SLC12A2 / Fold change vs veh, SLC12A2 / RFU, IBTK / Fold change vs veh, IBTK / RFU, ESF1 / Fold change vs veh, ESF1 / Fold change vs veh, TMEM50B / RFU, TAOK1 / Fold change vs veh, TAOK1 / RFU, ACBD3 / Fold change vs veh, ACBD3 / RFU, TMA16 / Fold change vs veh, TMA16 / RFU, RWDD3 / Fold change vs veh, RWDD3 / RFU, BCAT1 / Fold change vs veh, BCAT1 / RFU, EDEM3 / Fold change vs veh, EDEM3 / RFU, TMEM33 / Fold change vs veh, TMEM33 / RFU, WDR75 / Fold change vs veh, WDR75 / RFU, AHCTF1 / Fold change vs veh, AHCTF1 / RFU, TFRC / Fold change vs veh, TFRC / RFU, ZDHHC17 / Fold change vs veh, ZDHHC17 / RFU, NOM1 / Fold change vs veh, NOM1 / RFU, ARL8B / Fold change vs veh, ARL8B / RFU, ZBTB11 / Fold change vs veh, ZBTB11 / RFU, TAMM41 / Fold change vs veh, TAMM41 / RFU, KIAA1704 /// LOC100996395 / Fold change vs veh, KIAA1704 /// LOC100996395 / RFU, ING1 / Fold change vs veh, ING1 / RFU, TRMT61B / Fold change vs veh, TRMT61B / RFU, FUBP3 / Fold change vs veh, FUBP3 / RFU, TP53 / Fold change vs veh, TP53 / RFU, TNKS2 / Fold change vs veh, TNKS2 / RFU, ZFP14 / Fold change vs veh, ZFP14 / RFU, ACTR2 / Fold change vs veh, ACTR2 / RFU, PPP3R1 / Fold change vs veh, PPP3R1 / RFU, PIK3R1 / Fold change vs veh, PIK3R1 / RFU, HNRNPA1 / Fold change vs veh, HNRNPA1 / RFU, RNF170 / Fold change vs veh, RNF170 / RFU, ZNF28 / Fold change vs veh, ZNF28 / RFU, RNGTT / Fold change vs veh, RNGTT / RFU, OGT / Fold change vs veh, OGT / RFU, BRD1 / Fold change vs veh, BRD1 / RFU, MARS / Fold change vs veh, MARS / RFU, ZNF655 / Fold change vs veh, ZNF655 / RFU, FAHD1 / Fold change vs veh, FAHD1 / RFU, BDP1 / Fold change vs veh, BDP1 / RFU, LRRCC1 / Fold change vs veh, LRRCC1 / RFU, ARID1A / Fold change vs veh, ARID1A / RFU, ZNF146 / Fold change vs veh, ZNF146 / RFU, ZNF330 / Fold change vs veh, ZNF330 / RFU, GPN3 / Fold change vs veh, GPN3 / RFU, C9orf123 / Fold change vs veh, C9orf123 / RFU, N4BP2L2 / Fold change vs veh, N4BP2L2 / RFU, ARFIP1 / Fold change vs veh, ARFIP1 / RFU, FAM179B / Fold change vs veh, FAM179B / RFU, BCL10 / Fold change vs veh, BCL10 / RFU, UHRF1BP1L / Fold change vs veh, UHRF1BP1L / RFU, BET1 / Fold change vs veh, BET1 / RFU, CNOT2 / Fold change vs veh, CNOT2 / RFU, ZNF268 / Fold change vs veh, ZNF268 / Fold change vs veh, ZNF507 / RFU, DGCR2 / Fold change vs veh, DGCR2 / RFU, WDSUB1 / Fold change vs veh, WDSUB1 / Fold change vs veh, HSP90B1 /// MIR3652 / RFU, ADSS / Fold change vs veh, ADSS / RFU, GK / Fold change vs veh, GK / RFU, ZNF148 / Fold change vs veh, ZNF148 / RFU, TAF9 / Fold change vs veh, TAF9 / RFU, SLC1A5 / Fold change vs veh, SLC1A5 / RFU, SLMO2 / Fold change vs veh, SLMO2 / RFU, ABCC4 / Fold change vs veh, ABCC4 / RFU, LOC101060439 /// RAP1B / Fold change vs veh, LOC101060439 /// RAP1B / RFU, RFX7 / Fold change vs veh, RFX7 / RFU, GTPBP10 / Fold change vs veh, GTPBP10 / RFU, CNEP1R1 / Fold change vs veh, CNEP1R1 / RFU, BIVM-ERCC5 /// ERCC5 / Fold change vs veh, BIVM-ERCC5 /// ERCC5 / RFU, ILF3 / Fold change vs veh, ILF3 / RFU 11762660_at / Fold change /veh 11762660_at / RFU VCAN (11757783_s_at) / Fold change /veh VCAN (11757783_s_at) / RFU DDX43 (11728927_at) / Fold change /veh DDX43 (11728927_at) / RFU KRT8 (11758188_x_at) / Fold change /veh KRT8 (11758188_x_at) / RFU NKD1 (11759106_at) / Fold change /veh NKD1 (11759106_at) / RFU SRD5A1 (11742802_a_at) / Fold change /veh SRD5A1 (11742802_a_at) / RFU TPSAB1 /// TPSB2 (11721975_s_at) / Fold change /veh TPSAB1 /// TPSB2 (11721975_s_at) / RFU GSTM3 (11746129_a_at) / Fold change /veh GSTM3 (11746129_a_at) / RFU IL23R (11737362_x_at) / Fold change /veh IL23R (11737362_x_at) / RFU TMEM51 (11727254_a_at) / Fold change /veh TMEM51 (11727254_a_at) / RFU PIWIL2 (11732686_x_at) / Fold change /veh PIWIL2 (11732686_x_at) / RFU ORM1 (11744905_x_at) / Fold change /veh ORM1 (11744905_x_at) / RFU CCDC152 (11743942_at) / Fold change /veh CCDC152 (11743942_at) / RFU ECM1 (11717891_a_at) / Fold change /veh ECM1 (11717891_a_at) / RFU IL23R (11748794_a_at) / Fold change /veh IL23R (11748794_a_at) / RFU TNFAIP8L3 (11732012_x_at) / Fold change /veh TNFAIP8L3 (11732012_x_at) / RFU MBOAT4 (11741988_at) / Fold change /veh MBOAT4 (11741988_at) / RFU 11764193_at / Fold change /veh 11764193_at / RFU TMEM53 (11763286_at) / Fold change /veh TMEM53 (11763286_at) / RFU MAGEB2 (11727129_at) / Fold change /veh MAGEB2 (11727129_at) / RFU TMEM200A (11744735_a_at) / Fold change /veh TMEM200A (11744735_a_at) / RFU CCDC152 (11751479_a_at) / Fold change /veh CCDC152 (11751479_a_at) / RFU FAM211A (11726209_a_at) / Fold change /veh FAM211A (11726209_a_at) / RFU RGS16 (11746705_a_at) / Fold change /veh RGS16 (11746705_a_at) / RFU VCAN (11755009_s_at) / Fold change /veh VCAN (11755009_s_at) / RFU RHOB (11743442_s_at) / Fold change /veh RHOB (11743442_s_at) / RFU RGS16 (11720943_a_at) / Fold change /veh RGS16 (11720943_a_at) / RFU RGS16 (11720944_at) / Fold change /veh RGS16 (11720944_at) / RFU, VPS4B / Fold change vs veh, VPS4B / RFU, CREB1 / Fold change vs veh, CREB1 / RFU, DNAJC13 / Fold change vs veh, DNAJC13 / RFU, GNAQ / Fold change vs veh, GNAQ / RFU, CDK5R1 / Fold change vs veh, CDK5R1 / RFU, ZRANB3 / Fold change vs veh, ZRANB3 / RFU, CUL4A / Fold change vs veh, CUL4A / RFU, CCNY / Fold change vs veh, CCNY / RFU, UFL1 / Fold change vs veh, UFL1 / RFU, COG3 / Fold change vs veh, COG3 / RFU, DIAPH2 / Fold change vs veh, DIAPH2 / RFU, SKA2 / Fold change vs veh, SKA2 / RFU, AFF3 / Fold change vs veh, AFF3 / RFU, LMF1 / Fold change vs veh, LMF1 / RFU, IPO11 / Fold change vs veh, IPO11 / RFU, DFFB / Fold change vs veh, DFFB / RFU, FOXP1 / Fold change vs veh, FOXP1 / RFU, CARD8 / Fold change vs veh, CARD8 / RFU, STRN3 / Fold change vs veh, STRN3 / RFU, ADK / Fold change vs veh, ADK / RFU, RASSF2 / Fold change vs veh, RASSF2 / RFU, WIPF1 / Fold change vs veh, WIPF1 / RFU, LARP1B / Fold change vs veh, LARP1B / RFU, RASA1 / Fold change vs veh, RASA1 / RFU, RB1 / Fold change vs veh, RB1 / RFU, PPFIA1 / Fold change vs veh, PPFIA1 / RFU, MAT2A / Fold change vs veh, MAT2A / RFU, CCT5 / Fold change vs veh, CCT5 / RFU, WDR92 / Fold change vs veh, WDR92 / RFU, CUX1 / Fold change vs veh, CUX1 / RFU, TTC7A / Fold change vs veh, TTC7A / RFU, TMEM135 / Fold change vs veh, TMEM135 / RFU, DEPTOR / Fold change vs veh, DEPTOR / RFU, CPM / Fold change vs veh, CPM / RFU, DNAJB6 / Fold change vs veh, DNAJB6 / RFU, CACNA2D3 / Fold change vs veh, CACNA2D3 / RFU, DTX4 / Fold change vs veh, DTX4 / RFU, TFCP2 / Fold change vs veh, TFCP2 / RFU, GMCL1 /// GMCL1P1 / Fold change vs veh, GMCL1 /// GMCL1P1 / RFU, AEBP2 / Fold change vs veh, AEBP2 / RFU, SNHG1 /// SNORD22 /// SNORD25 /// SNORD26 /// SNORD27 /// SNORD28 /// SNORD29 /// SNORD31 / Fold change vs veh, SNHG1 /// SNORD22 /// SNORD25 /// SNORD26 /// SNORD27 /// SNORD28 /// SNORD29 /// SNORD31 / Fold change (Aza/veh), C12orf56 (ProbeSet 11735607_a_at) / Fold change (ACY-1035/veh), C12orf56 (ProbeSet 11735607_a_at) / Fold change (Aza/veh), FGFR1OP (ProbeSet 11751329_s_at) / Fold change (ACY-1035/veh), FGFR1OP (ProbeSet 11751329_s_at) / Fold change (Aza/veh), VPS36 (ProbeSet 11739960_a_at) / Fold change (ACY-1035/veh), VPS36 (ProbeSet 11739960_a_at) / RFU SYPL1 (11715823_x_at) / Fold change /veh SYPL1 (11715823_x_at) / RFU IGFBP7 (11715501_s_at) / Fold change /veh IGFBP7 (11715501_s_at) / RFU REEP3 (11722064_at) / Fold change /veh REEP3 (11722064_at) / RFU IGLL1 (11728026_x_at) / Fold change /veh IGLL1 (11728026_x_at): dose or concentration left out as unconfirmed
Conditions: ProbeSet 11725901_x_at; LIST B

SMILES: Nc1ccc(-c2cccs2)cc1NC(=O)c1ccc2c(c1)cc(C1CC1)n2CCN1CCOCC1 [ACY-1035]
- RFU, RWDD3: 19.72 RFU
